Source: US5620416A, “Methods of using topical agents with systemically administered active agents” (priority 1995, dated 1997)

Test: Skin CDDP concentration after iontophoresis of a vasoactive agent with intravenous cisplatin infusion
Format: in vivo, female weanling Yorkshire pigs
Excerpt: The ability of iontophoretically-delivered, vasoactive compounds to affect local cutaneous concentrations of a systemically delivered active agent was investigated in female weanling Yorkshire pigs. The effect of the timing of iontophoresis on tissue deposition of active agent was also investigated.
Study animals were assigned to receive iontophoresis either prior to, or after, attaining steady-state systemic concentrations of cisplatin (cisdiaminedichloroplatinum, CDDP). The iontophoresed agent was either a peripheral vasodilator (tolazoline), peripheral vasoconstrictor (norepinephrine), or saline.
Subjects were sedated with intramuscular ketamine/xylazine, and anesthesia was maintained with intravenous thiamylal. In each subject the inguinal area was divided into four quadrants, three of which received iontophoresis. One quadrant received iontophoresis of 0.4% tolazoline HCl (TOL); one received iontophoresis of 0.4% norepinephrine HCl (NOR); and one received iontophoresis of 50% saturated saline (SAL). The remaining quadrant served as a control (CON) and was not subjected to iontophoresis.
Iontophoretic current density was 0.2 mAmp/cm^2. Cisplatin (1.0 mg/ml) was infused via the saphenous vein at a rate of 0.03 mg/kg/min. […]

skin CDDP concentrations among skin samples (in words) (iontophoresis after reaching steady-state CDDP, control, tolazoline, norepinephrine and saline electrodes): did not vary significantly
skin CDDP concentration vs control skin (in words) (iontophoresis prior to steady-state CDDP, tolazoline p=0.01, norepinephrine p<0.001): significantly lower
SMILES: NC[C@H](O)c1ccc(O)c(O)c1 [Norepinephrine, norepinephrine]
